The text below walks through data of publication PMC8268238, “Seleno-Functionalization of Quercetin Improves the Non-Covalent Inhibition of M^pro and Its Antiviral Activity in Cells against SARS-CoV-2” (International Journal of Molecular Sciences, 2021).

Usually pIC50 stands for the negative decadic logarithm of the IC50, by convention in mol/L. For orientation: melting point means the temperature, or range, at which the solid turns liquid. In general, pKi refers to the Ki on a negative log10 scale, so that one unit is a factor of ten.

The structures appear in SMILES notation. pIC50, pKi: −log10 of the molar value. Like-named read-outs stand apart in the source and are kept apart here.

Data set [1] deals with SARS-CoV-2 main protease (M^pro or 3CL^pro). Particulars: cited from earlier work.
In data set [2] the test system is Vero cells. Briefly: XTT cell viability assay. It is filed as cell-based, Cercopithecus aethiops. Particulars: quercetin 500–100 µM; 2d 100–10 µM; Figure S2. The protocol:
Cell viability was evaluated using the XTT Cell Viability Assay kit (Biological Industries, Cromwell, CT, USA) according to the manufacturer’s protocol. Vero, A549ACE2+, CRFK, HRT-18, LLC-MK2, and HSF cells were cultured on 96-well plates. Cells were incubated with ACF for 24 h at 37 °C in an atmosphere containing 5% CO2. After incubation, the medium was discarded and 100 µL of fresh medium was added to each well. Then, 25 µL of the activated 2,3-bis-(2-methoxy-4-nitro-5-sulphenyl)-(2H)-tetrazolium-5-carboxanilide (XTT) solution was added and samples were incubated for 2 h at 37 °C. The absorbance (λ = 450 nm) was measured using a Spectra MAX 250 spectrophotometer (Molecular Devices, San Jose, CA, USA). The obtained results were normalized to the control samples, where cell viability was set to 100%.
A general note: Tetrazolium assays rely on reduction of a dye to a coloured formazan, in cell work by metabolically active cells.

The subject of data set [3] is SARS-CoV-2. As to the kind of experiment: Inhibition of SARS-CoV-2 replication in Vero cells by RT-qPCR. To be noted: for pIC50: Severe acute respiratory syndrome coronavirus 2, Vero, 48 h, read-out: IC50 of SARS-CoV-2 replication (RT-qPCR); for logIC50 of SARS-CoV-2 replication (RT-qPCR): log of concentration in µM, Figure S4. It is filed as cell-based. On the technique in general: Quantitative PCR measures a nucleic acid by following its amplification.

In data set [4] the target is T1, SARS-CoV-2 M^pro (Severe acute respiratory syndrome coronavirus 2, UniProt P0DTD1). Briefly: Reversibility test of M^pro interaction (SEC/dialysis, then activity and near-UV CD). It is filed as biochemical. To be noted: M^pro 24 μM incubated with compound 200 μM, 30 min, 25 °C, then SEC or dialysis.
In data set [5] the test system is SARS-CoV-2. Particulars: for Inhibition of the virus-caused cytopathic effect (CPE): 2 days. (Protection from cytopathic effect is a common read-out in antiviral testing.)
In data set [6] the target is T1, SARS-CoV-2 M^pro. Briefly: SARS-CoV-2 M^pro inhibition assay (FRET substrate). The format is biochemical. Particulars: 0.2 μM enzyme, 20 μM substrate, pH 7, DMSO 2.5%. The protocol:
A continuous assay based on Förster resonance energy transfer (FRET) to measure in vitro the catalytic activity of M^pro was implemented by using the substrate (Dabcyl)KTSAVLQSGFRKME(Edans)-NH2 (Biosyntan GmbH, Berlin, Germany) The enzymatic reaction was initiated by adding substrate at 20 μM (final concentration) to the enzyme at 0.2 μM (final concentration) in a final volume of 100 μL. The reaction buffer was sodium phosphate 50 mM, pH 7, NaCl 150 mM, and DMSO 2.5%. Fluorescence emission was measured in a FluoDia T70 microplate reader (Photon Technology International, Birmingham, NJ, USA) for 20 min (excitation wavelength, 380 nm; emission wavelength, 500 nm). The initial slope of the time evolution curve of the fluorescence emission signal provided a direct quantification of the enzymatic activity.
The in vitro inhibition potency of the compounds against M^pro was assessed through the estimation of the inhibition constant, Ki, and the half-maximal inhibitory concentration, IC50, from experimental inhibition curves. Inhibition curves were obtained by measuring the enzyme activity (at fixed 0.2 μM enzyme concentration and fixed 20 μM substrate concentration) as a function of compound concentration (serial 2-fold dilution from 125 µM to 0 μM), maintaining the percentage of DMSO (2.5%) constant. The enzymatic activity was quantitated as the initial slope of the substrate fluorescence emission time evolution curve, and was plotted as a function of compound concentration. The ratio between the activity (slope) in the presence and absence of the compound provides the residual percentage of activity at a given compound concentration. Nonlinear regression analysis employing a simple inhibition model (considering inhibitor depletion due to enzyme binding) allowed us to estimate the apparent inhibition constant, Ki^app, for each compound according to Equation (1):(1) [EI]=1/2([I]T+[E]T+Kiapp−([I]T+[E]T+Kiapp)^2−4[E]T[I]T)[I]=[I]T−[EI]=1/2([I]T−[E]T−Kiapp+([I]T+[E]T+Kiapp)^2−4[E]T[I]T)v([I])/v([I]=0)=1−[EI]/[E]T=1/1+[I]/Kiapp, where [EI] is the concentration of the enzyme–inhibitor complex, [E]T and [I]T are the total concentrations of the enzyme and the inhibitor, Ki^app is the apparent inhibition constant for the inhibitors (quercetin and derivatives), [I] is the concentration of the free inhibitor, and v is the initial slope of the enzymatic activity trace at a given (free) inhibitor concentration [I] (or total inhibitor concentration [I]T). No approximation for the free inhibitor concentration (e.g., assuming to be equal to the total inhibitor concentration) was made, thus having general validity for any total enzyme and inhibitor concentration and any value of the inhibition constant (even for tight-binding inhibitors). In addition, if the inhibitor acts through a purely competitive mechanism, the previous equation can be substituted by Equation (2):(2) v([I])/v([I]=0)=1/1+[I]/Kiapp=1/1+[I]/Ki(1+[S]/Km), where Ki is the intrinsic (i.e., substrate concentration-independent) inhibition constant, Km is the Michaelis–Menten constant for the enzyme–substrate interaction, and [S] is the substrate concentration. Because Km and [S] are known, the intrinsic inhibition constant can be determined. Furthermore, approximating the free compound concentration by the total compound concentration and neglecting ligand depletion, the Ki^app in Equation (2) is equivalent to the IC50, as reported in Table 3. However, it should be emphasized that the IC50 is an assay-dependent inhibition potency index (among other parameters, it depends on the enzyme and substrate concentrations, as well as on the Km); thus, the intrinsic inhibition constant is a better inhibition potency index. Uncertainties have been reported as 95% profile likelihood asymmetric confidence intervals, as especially recommended for equilibrium constants (i.e., binding association/dissociation constants and inhibition constants).

The test system of data set [7] is SARS-CoV-2. On the set-up: method as in PMID 32272481. Particulars: cited from earlier work.

For `C[C@@H]1O[C@@H](OC[C@H]2O[C@@H](Oc3c(-c4ccc(O)c(O)c4)oc4cc(O)cc(O)c4c3=O)[C@H](O)[C@@H](O)[C@@H]2O)[C@H](O)[C@H](O)[C@H]1O` [rutin], the “M^pro inhibition potency relative to quercetin, in words” value in data set [1] is given as “slightly lower potency”.
For `O=c1c(O)c(-c2ccc(O)c(O)c2)oc2cc(O)cc(O)c12` [Quercetin 1, quercetin], the “cytotoxicity on Vero cells (in words)” value in data set [2] is listed as “none of the tested concentrations exhibited cytotoxicity”. Also, the pIC50 in data set [3] (infected Vero cells, 2 days, nonlinear regression) is 3.72. For the same compound, the “logIC50 of SARS-CoV-2 replication (RT-qPCR)” value in data set [3] is given as 2,284. Besides, the “reversibility of the interaction with M^pro” value was “reversible interaction” in data set [4] (listed as 1) and “reversible” in data set [4] (listed as quercetin). For the same compound, the “Inhibition of the virus-caused cytopathic effect (CPE)” value (“Inhibition … (CPE)” for short) in data set [5] (10 µM, Vero cells) is given as “-”; in data set [5] (25 µM, Vero cells), “-”; in data set [5] (50 µM, Vero cells), “-”; in data set [5] (75 µM, Vero cells), “-”; in data set [5] (100 µM, Vero cells), “-”; in data set [5] (200 µM, Vero cells), “+”. Also, the “Inhibition … (CPE)” value in data set [5] (250 µM, Vero cells) is “+”; in data set [5] (300 µM, Vero cells), “+”; in data set [5] (400 µM, Vero cells) it was “+”; in data set [5] (500 µM, Vero cells), “+”.
For `Cc1ccc([Se]c2c(O)cc(O)c3c(=O)c(O)c(-c4ccc(O)c(O)c4)oc23)cc1` [2d, 2-(3,4-Dihydroxyphenyl)-3,5,7-trihydroxy-8-(p-tolylselanyl)-4H-chromen-4-one], the melting point lay in the range of 203 to 206 °C. Besides, the “cytotoxicity on Vero cells (in words)” value in data set [2] is recorded as “none of the tested concentrations exhibited cytotoxicity”. Further, in data set [3], the pIC50 was 5.10 and the “logIC50 of SARS-CoV-2 replication (RT-qPCR)” value is 0,8968. Besides, the “improvement of the antiviral potency versus quercetin” value in data set [3] (ratio of antiviral IC50 values) was 24 fold. The pIC50 in data set [6] (equivalent to Ki^app) was 4.96. For the same compound, the pKi in data set [6] (intrinsic inhibition constant) was 5.42. Moreover, the “reversibility of the interaction with M^pro” value in data set [4] is reported as “reversible interaction”. Also, the “Inhibition … (CPE)” value in data set [5] (10 µM, Vero cells) is given as “+”. In addition, the “Inhibition … (CPE)” value in data set [5] (25 µM, Vero cells) is reported as “+”. Also, in data set [5] (50 µM, Vero cells), the “Inhibition … (CPE)” value is listed as “+”. Further, in data set [5] (75 µM, Vero cells), the “Inhibition … (CPE)” value is reported as “+”. Further, the “Inhibition … (CPE)” value in data set [5] (100 µM, Vero cells) is reported as “+”. In data set [5] (100 µM, in half of experiments), the “morphological changes of cells in the infection model” value is “morphological changes were observed”. This compound came in with a maximal non-toxic concentration in data set [5] (Vero cells, Figure S3) of 100 µM. Also, in data set [5] (tested at 100, 75, 50, 25 and 10 µM, judged at non-toxic concentrations), the “SARS-CoV-2-related CPE reduction (in words)” value is reported as “inhibited the development of the CPE”.
Take `O=c1c2ccccc2[se]n1-c1ccccc1` [ebselen]: the “Antiviral activity observed in cell models, in words” value in data set [7] is on record as “low micromolar levels”. Moreover, the “M^pro half-maximal inhibitory concentration (IC50), in words” value in data set [1] is given as “nanomolar range”.
